The values below come from patent publication US4975462A, “Antiarthritic α-arylcarbamoyl cyanoacetic acid derivatives” (Bristol-Myers Company, priority 1988, dated 1990).

Assay [1] relates to adjuvant-induced polyarthritis (Mycobacterium butyricum). The assay is described as follows: Modified developing adjuvant arthritis in rats (adjuvant-induced polyarthritis, AIP). The assay is classed as in vivo, male Lewis rats. Particulars: p.o., from d. 1-8. The method, then: A. Modified developing adjuvant arthritis in rats. This test is based on the procedure originally described by Pearson (Proc. Soc. Biol. Med., 1956, pp 91-5). Each experimental group used six male Lewis rats weighing approx. 250 gm. Arthritis was produced by a single intradermal injection of Mycobacterium butyricum (0.6 mg in 0.1 ml mineral oil) into the base of the tail. Test compounds were administered orally, once daily, starting on the day of inoculation (day 1) through day 8. The paw volume (average of two hind paws) was measured by the mercury displacement method at least twice weekly during the course of the experiment (40 to 42 days). The efficacy of a compound was expressed as the percent reduction of hind paw volume of treated vs. untreated rats using the following equation: [formula] PC=positive control (not treated, arthritic) NC=negative control (not treated, non-arthritic) RX=drug group (treated, arthritic) | ^(a) once daily, p.o., from d. 1-8. | ^(b) % Inhibition of paw edema: O = <25; + = 25-<40; ++ = 40-<60; +++ | = 60-80; ++++ = 80-100.

The test system of assay [2] is carrageenin-induced paw edema. Put plainly: Carrageenin induced paw edema in the rat (CIP). It is filed as in vivo, male Sprague Dawley rats. The conditions noted are these: single oral dose of 50 mg/kg 30 min. prior to carrageenin injection; 4 hrs. after carrageenin injection. The method, then: B. Carrageenin induced paw edema in the rat.
This test is based on the procedure originally described by Holsapple and Yim (Inflammation, 1984, 8:223). Six male Sprague Dawley rats weighing approx. 300 gm were used in each experimental group. The rats had been starved for 24 hours prior to injection of 0.1 ml of 1% carrageenin into the plantar surface of the left hind paw. Test compounds were dosed orally 30 minutes prior to carrageenin administration. The volumes of the left hind paws were measured by mercury displacement at 2,4, and 6 hours following carrageenin injection. The efficacy of a compound was expressed as the percent inhibition of carrageenin injected paw volume as compared to non-injected paw using the following equation: [formula]
C=Vehicle control group (left paw volume-right paw volume)
RX=Drug treated group (left paw volume-right paw volume)
The peak of drug effects usually occurred 2-4 hours following carrageenin injection.
^(c) test compound administered as a single oral dose of 50 mg/kg 30
min. prior to carrageenin injection. % Inhibition determined 4 hrs. after
carrageenin injection; I = <25% reduction in paw volume and A =
≥25% reduction in paw volume.

Assay [3] relates to adjuvant-induced arthritis. Particulars: J. Med. Chem., 1979, 22:1385-9; cited from earlier work.

Molecules are shown by their SMILES.

For the molecule `CSC(=O)C(C#N)C(=O)Nc1ccc(C(F)(F)F)cc1` (stereo not drawn) [Example 1, β-Methylthio-β-oxo-α-(4-trifluoromethylphenyl)carbamoylpropionitrile], in assay [1] (50 mg/kg once daily), the “AIP Inhib. score d. 20-22 (% Inhibition of paw edema)” value is “++++ (80-100)” and the “AIP Inhib. score d. 40-42 (% Inhibition of paw edema)” value is listed as “++++ (80-100)”. Moreover, in assay [2], the “CIP (% Inhibition, reduction in paw volume)” value is “A (≥25% reduction in paw volume)”.

For `CNC(=O)C(C#N)C(=O)Nc1ccc(C(F)(F)F)cc1` (stereo not drawn) [Example 3, β-Methylamino-β-oxo-α-(4-trifluoromethylphenyl) carbamoylpropionitrile], in assay [1] (50 mg/kg once daily), the “AIP Inhib. score d. 20-22 (% Inhibition of paw edema)” value was “+++ (60-80)” and the “AIP Inhib. score d. 40-42 (% Inhibition of paw edema)” value is listed as “+++ (60-80)”. The “CIP (% Inhibition, reduction in paw volume)” value in assay [2] is reported as “A (≥25% reduction in paw volume)”.

For the molecule `N#CCC(=O)c1ccccc1` [Benzoylacetonitrile (I), Benzoylacetonitrile], in assay [3], the “inhibition of adjuvant-induced arthritis in rats” value was “effective inhibitors”.

As for `COC(=O)C(C#N)C(=O)Nc1ccc(C(F)(F)F)cc1` (stereo not drawn) [Example 2, βMethoxy-β-oxo-α-(4-trifluoromethylphenyl)carbamoylpropionitrile], in assay [1] (100 mg/kg once daily), the “AIP Inhib. score d. 20-22 (% Inhibition of paw edema)” value is “+++ (60-80)” and the “AIP Inhib. score d. 40-42 (% Inhibition of paw edema)” value is “+++ (60-80)”. The “CIP (% Inhibition, reduction in paw volume)” value in assay [2] is given as “I (<25% reduction in paw volume)”.
